# In patent US11370847B2, “Single domain antibodies directed against intracellular antigens” (Singh Biotechnology, LLC, priority 2014, dated 2022):
# Several values for one entry are separate records, joined by “and”; a condition that tells them apart may be missing. Identical values can stand only once. Like-named read-outs stand apart in the source and are kept apart here.
# Assays:
# VEGF-A = VEGF-A ELISA in ARPE-19 retinal cells; type: cell-based, human; settings: Experiment 2; for pg VEGF-A per μg protein: single wells
# BT474 xenograft = experiment: BT474 human breast tumor xenograft in CB.17 SCID mice; type: in vivo
# MDA-MB 231 cells = experiment: Internalization of sdAb, anti-His staining, MDA-MB 231; type: cell-based; settings: 18 hours after sdAb addition
# Description: The next day, the chambers were rinsed with fresh media and STAT3 VHH13 (SEQ ID NO:3) sdAb (diluted 1:10 in media) or TNF-α VHH66 (SEQ ID NO:45) sdAb was added to the chamber. An anti-HIV-1 Reverse Transcriptase (RT) sdAb was used as a negative control.
# The slides were incubated for 18 hours after sdAb addition. The chambers were briefly rinsed with media and fixed in ice-cold methanol for 5-10 min. The chambers were then dried and stained with a fluorescent anti-His tag antibody (1:200) (Novus Biologicals, Littleton, Colo.) for 45 min at room temperature. The slides were rinsed in PBS for 5 minutes and mounted.
# DU145 cells = experiment: MTT proliferation assay, DU145; type: cell-based, human; settings: 50 μg, single experiments, listed as Anti-STAT3 Bacterial VHH13
# MCF-7 xenograft = settings: for Caliper Measurement W / Caliper Measurement L / Tumor Volume TV: individual animals; for Caliper Measurement W / Caliper Measurement L / Tumor Volume TV / Tumor Volume TV, group Mean: VHH13 1 mg/kg ip tid × 14
# PANC-1 xenograft = settings: for Tumor Measurements (mm^3), group Mean / Individual Tumor Measurements (mm^3): Group 2: 500 μg/kg bw IP QD×14; for Individual Tumor Measurements (mm^3): single animals, listed as anti-STAT3 bacterial VHH13
# STAT5 = experiment: Biacore 3000 protein binding, STAT5
# [1] = SB-01 1 mg/kg ip tid × 14 first day 2 doses
# [2] = Group 2, 1 mg/kg ip tid × 14 first Day 2 doses
substance,measurement,setting,value
"anti-STAT3 VHH13: anti-STAT3 single-domain antibody, SEQ ID NO:3; bacterially produced, referred to as SBT-100",pg VEGF-A per μg protein,"VEGF-A; ARPE-19, 0.1 μg/well, 12 Hr",2.4 pg per μg protein
same,pg VEGF-A per μg protein,"VEGF-A; ARPE-19, 10 μg/well, 24 Hr",4.4 pg per μg protein
same,decrease in VEGF-A,"VEGF-A; ARPE-19, 100 μg/mL, 12 hour treatment",20.1%
same,decrease in VEGF-A,"VEGF-A; ARPE-19, 100 μg/mL, 24 hour treatment",7.5%
same,pg VEGF-A/μg protein as % of the negative control,"VEGF-A; ARPE-19, 100 μg/mL, 48 hours",11%
same,decrease in VEGF-A,"VEGF-A; lower concentrations (10, 1 or 0.1 μg/ml)",not seen
same,effect on growth of BT474 tumors compared to control,BT474 xenograft; 1 mg/kg ip tid × 14,did not reduce the growth of BT474 tumors in vivo
same,% TGD,BT474 xenograft; [1],22%
same,MTV (n) Day 60,BT474 xenograft; [1],550
same,Median TTE,BT474 xenograft; [1],60.0
same,staining with fluorescent anti-His tag antibody,MDA-MB 231 cells,positive cytoplasmic staining
same,Absorbance,DU145 cells,0.68 and 1.2
same,time for the group to reach a tumor volume of 1000 mm^3,"MCF-7 xenograft; 1 mg/kg ip tid x 14, control group 25 days",36 days
same,Caliper Measurement W,MCF-7 xenograft; Day 1,6 mm
same,Caliper Measurement L,"MCF-7 xenograft; Day 1, 1 mg/kg",6 mm (2×) and 7 mm (2×)
same,Tumor Volume TV,"MCF-7 xenograft; Day 4 (Jul. 30, 2015), 1 mg/kg",196 mm^3 and 126 mm^3 and 144 mm^3
same,Caliper Measurement L,"MCF-7 xenograft; Day 4, 1 mg/kg",8 mm (2×) and 7 mm
same,Caliper Measurement W,"MCF-7 xenograft; Day 4, 1 mg/kg",7 mm and 6 mm (2×)
same,Caliper Measurement L,"MCF-7 xenograft; Day 8, 1 mg/kg",8 mm
same,Caliper Measurement W,"MCF-7 xenograft; Day 8, 1 mg/kg",7 mm
same,Caliper Measurement L,"MCF-7 xenograft; Day 11, 1 mg/kg",8 mm
same,Caliper Measurement W,"MCF-7 xenograft; Day 11, 1 mg/kg",9 mm and 7 mm
same,"Tumor Volume TV, group Mean",MCF-7 xenograft; Day 15,346.5 mm^3
same,Caliper Measurement L,"MCF-7 xenograft; Day 15, 1 mg/kg",9 mm
same,Caliper Measurement W,"MCF-7 xenograft; Day 15, 1 mg/kg",9 mm
same,Tumor Volume TV,"MCF-7 xenograft; Day 15, 1 mg/kg",405 mm^3 and 288 mm^3
same,Caliper Measurement L,"MCF-7 xenograft; Day 18, 1 mg/kg",9 mm
same,Caliper Measurement W,"MCF-7 xenograft; Day 18, 1 mg/kg",9 mm
same,Caliper Measurement L,"MCF-7 xenograft; Day 22, 1 mg/kg",11 mm
same,Caliper Measurement W,"MCF-7 xenograft; Day 22, 1 mg/kg",9 mm
same,Caliper Measurement L,"MCF-7 xenograft; Day 25, 1 mg/kg",12 mm
same,Caliper Measurement W,"MCF-7 xenograft; Day 25, 1 mg/kg",12 mm and 9 mm
same,Caliper Measurement L,"MCF-7 xenograft; Day 29, 1 mg/kg",13 mm
same,Caliper Measurement W,"MCF-7 xenograft; Day 29, 1 mg/kg",13 mm
same,"Tumor Volume TV, group Mean",MCF-7 xenograft; Day 32,500 mm^3
same,Tumor Volume TV,MCF-7 xenograft; Day 32,500 mm^3
same,Caliper Measurement L,MCF-7 xenograft; Day 36,12 mm
same,Caliper Measurement W,MCF-7 xenograft; Day 36,12 mm
same,Caliper Measurement L,MCF-7 xenograft; Day 39,13 mm
same,Caliper Measurement W,MCF-7 xenograft; Day 39,13 mm
same,% TGD,MCF-7 xenograft; [2],42%
same,T-C,MCF-7 xenograft; [2],9.7
same,growth inhibition,PANC-1 xenograft; 500 μg/kg bw IP QD×14,no significant growth inhibition
same,mean tumor size (±SE) on day 14 of dosing,PANC-1 xenograft; 500 μg/kg bw IP QD×14,318.74 ± 29.76
same,tumor doubling time,"PANC-1 xenograft; 500 μg/kg bw IP QD×14, control […] days",23.02 days
same,"Tumor Measurements (mm^3), group Mean",PANC-1 xenograft; 2/19,110.58 mm^3
same,"Tumor Measurements (mm^3), group Mean",PANC-1 xenograft; 2/24,149.71 mm^3
same,"Tumor Measurements (mm^3), group Mean",PANC-1 xenograft; 2/27,222.47 mm^3
same,"Tumor Measurements (mm^3), group Mean",PANC-1 xenograft; 3/2,242.11 mm^3
same,"Tumor Measurements (mm^3), group Mean",PANC-1 xenograft; 3/6,318.74 mm^3
same,"Tumor Measurements (mm^3), group Mean",PANC-1 xenograft; 3/10,408.74 mm^3
same,Individual Tumor Measurements (mm^3),PANC-1 xenograft; 2/19,96.31 mm^3 and 89.24 mm^3 and 80.62 mm^3 and 108.03 mm^3 and 77.66 mm^3 and 129.68 mm^3 and 108.99 mm^3 and 123.27 mm^3 and 144.53 mm^3 and 120.96 mm^3 and 112.69 mm^3 and 134.95 mm^3
same,Individual Tumor Measurements (mm^3),PANC-1 xenograft; 2/24,193.71 mm^3 and 90.03 mm^3 and 148.97 mm^3 and 144.14 mm^3 and 116.21 mm^3 and 143.20 mm^3 and 182.30 mm^3 and 171.03 mm^3 and 136.03 mm^3 and 136.48 mm^3 and 144.76 mm^3 and 189.64 mm^3
same,Individual Tumor Measurements (mm^3),PANC-1 xenograft; 2/27,275.06 mm^3 and 112.43 mm^3 and 196.38 mm^3 and 234.46 mm^3 and 313.19 mm^3 and 290.67 mm^3 and 239.00 mm^3 and 223.34 mm^3 and 198.47 mm^3 and 226.43 mm^3 and 167.12 mm^3 and 193.14 mm^3
same,Individual Tumor Measurements (mm^3),PANC-1 xenograft; 3/2,317.53 mm^3 and 125.51 mm^3 and 187.24 mm^3 and 240.39 mm^3 and 290.38 mm^3 and 224.92 mm^3 and 254.64 mm^3 and 226.88 mm^3 and 226.04 mm^3 and 338.06 mm^3 and 225.70 mm^3 and 248.01 mm^3
same,Individual Tumor Measurements (mm^3),PANC-1 xenograft; 3/6,395.37 mm^3 and 189.63 mm^3 and 299.84 mm^3 and 288.75 mm^3 and 411.66 mm^3 and 261.44 mm^3 and 342.19 mm^3 and 248.69 mm^3 and 247.97 mm^3 and 564.71 mm^3 and 223.06 mm^3 and 351.63 mm^3
same,Individual Tumor Measurements (mm^3),PANC-1 xenograft; 3/10,540.66 mm^3 and 235.08 mm^3 and 530.46 mm^3 and 421.61 mm^3 and 197.67 mm^3 and 343.04 mm^3 and 464.00 mm^3 and 324.30 mm^3 and 273.58 mm^3 and 883.81 mm^3 and 326.19 mm^3 and 364.44 mm^3
same,% treatment/control,PANC-1 xenograft; SBT-100 5 mg/kg bw i.p. BID×14,52.79%
same,mean tumor size (±S.E.) at termination (day 28),PANC-1 xenograft; SBT-100 5 mg/kg bw i.p. BID×14,203.02±30.34
same,mean tumor size (±SE) at last day of dosing (Day 14),PANC-1 xenograft; SBT-100 5 mg/kg bw i.p. BID×14,159.03±28.01
same,tumor doubling time,"PANC-1 xenograft; SBT-100 5 mg/kg bw i.p. BID×14, control 18.51 days",35.70 days
same,mean tumor growth inhibition at the end of the study,"PANC-1 xenograft; SBT-100 5 mg/kg bw i.p. BID×14, p=0.35",41.78%
same,binding to STAT5,"STAT5; Biacore 3000, sdAb immobilized",bound
same,Result (binding),"STAT5; Table 50, sdAb immobilized as ligand, analyte STAT5 protein 500 nM",Binding
